Assay results from ChEMBL document CHEMBL4308829, “Design and Synthesis of Novel Positive Allosteric Modulators of α7 Nicotinic Acetylcholine Receptors with the Ability To Rescue Auditory Gating Deficit in Mice” (J Med Chem, 2018).
Activity calls are given as the source filed them.

target: T1, Neuronal acetylcholine receptor subunit alpha-7 (Homo sapiens, UniProt P36544); experiment: Positive allosteric modulation of human alpha7 nAChR expressed in Xenopus laevis oocytes assessed as increase in acetylcholine-induced channel current at 10 uM at -90 mV holding potential preincubated for 2 mins followed by co-application with acetylcholine for 10 secs by two-electrode voltage clamp method relative to control; assay type: cell-based
T1 sequence (P36544 whole entry): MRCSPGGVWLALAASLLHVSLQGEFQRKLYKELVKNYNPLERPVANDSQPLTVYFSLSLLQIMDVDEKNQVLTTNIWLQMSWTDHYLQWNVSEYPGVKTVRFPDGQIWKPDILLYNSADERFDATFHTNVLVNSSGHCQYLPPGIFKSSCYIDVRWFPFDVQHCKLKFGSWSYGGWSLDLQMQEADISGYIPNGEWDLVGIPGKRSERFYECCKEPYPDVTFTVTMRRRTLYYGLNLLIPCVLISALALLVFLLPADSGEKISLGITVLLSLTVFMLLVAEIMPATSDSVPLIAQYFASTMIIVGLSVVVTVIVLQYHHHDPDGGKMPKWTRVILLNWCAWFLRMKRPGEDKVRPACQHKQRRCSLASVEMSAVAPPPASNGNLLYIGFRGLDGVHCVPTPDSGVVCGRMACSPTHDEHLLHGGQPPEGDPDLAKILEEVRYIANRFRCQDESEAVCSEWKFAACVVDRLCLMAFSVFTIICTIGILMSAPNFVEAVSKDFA

Row | Compound | %max
1 | Cc1cccc(Cl)c1-n1cnc2nc(SCc3ccc(Br)cc3)sc2c1=O | 320%
2 | Cc1cccc(Cl)c1-n1cnc2nc(Nc3ccncn3)sc2c1=O | 101%
3 | Cc1ccc(CSc2nc3ncn(-c4c(C)cccc4Cl)c(=O)c3s2)cc1 | 321%
4 | Cc1ccccc1-n1cnc2nc(SCc3ccccc3)sc2c1=O | 171%
5 | Cc1ccc(Nc2nc3ncn(-c4c(C)cccc4Cl)c(=O)c3s2)cc1C | 650%
6 | Cc1cccc(Cl)c1-n1cnc2nc(Nc3ccc(F)c(F)c3)sc2c1=O | 300%
7 | Cc1cccc(Cl)c1-n1cnc2nc(Nc3ccc(Cl)cc3)sc2c1=O | 200%
8 | Cc1cc(Nc2nc3ncn(-c4c(C)cccc4Cl)c(=O)c3s2)cc(C)c1C | 600%
9 | COc1ccc(CSc2nc3ncn(-c4c(C)cccc4Cl)c(=O)c3s2)cc1 | 292%
10 | O=c1c2sc(SCc3ccccc3)nc2ncn1-c1ccccc1Cl | 217%
11 | Cc1ccc(Nc2nc3ncn(-c4c(C)cccc4Cl)c(=O)c3s2)cc1 | 1620%
12 | Cc1cccc(Cl)c1-n1cnc2nc(Nc3cccc(F)c3)sc2c1=O | 450%
13 | Cc1cccc(Cl)c1-n1cnc2nc(SCc3ccc(Cl)cc3)sc2c1=O | 444%
14 | Cc1cccc(Cl)c1-n1cnc2nc(Nc3ccc(OC(F)(F)F)cc3)sc2c1=O | 200%
15 | Cc1ccc(Nc2nc3ncn(-c4c(C)cccc4Cl)c(=O)c3s2)cc1F | 387%
16 | O=c1c2sc(SCc3ccccc3)nc2ncn1-c1ccc(F)cc1 | 75%
17 | Cc1cccc(Cl)c1-n1cnc2nc(Nc3cccc(Cl)c3)sc2c1=O | 300%
18 | Cc1ccc(Nc2ccc3ncn(-c4c(C)cccc4Cl)c(=O)c3c2)cc1 | 63%
19 | Cc1cccc(Cl)c1-n1cnc2nc(Nc3ccc(Cl)nn3)sc2c1=O | inactive
20 | Cc1cccc(Cl)c1-n1cnc2nc(Nc3ccccc3)sc2c1=O | 300%
21 | Cc1ccc(CNc2nc3ncn(-c4c(C)cccc4Cl)c(=O)c3s2)cc1 | 111%
22 | Cc1cccc(Cl)c1-n1cnc2nc(SCc3ccc(F)cc3F)sc2c1=O | 1050%
23 | Cc1ccc(C(=O)Nc2nc3ncn(-c4c(C)cccc4Cl)c(=O)c3s2)cc1 | 450%
24 | COc1ccc(Nc2nc3ncn(-c4c(C)cccc4Cl)c(=O)c3s2)cc1 | 200%
25 | O=c1c2sc(SCc3ccccc3)nc2ncn1-c1cccc(F)c1 | 119%

Row | Compound | %max
26 | Cc1ccc(S(=O)(=O)Nc2nc3ncn(-c4c(C)cccc4Cl)c(=O)c3s2)cc1 | 97%
27 | Cc1cccc(Cl)c1-n1cnc2nc(Nc3ccccc3F)sc2c1=O | 200%
28 | Cc1cccc(Nc2nc3ncn(-c4c(C)cccc4Cl)c(=O)c3s2)c1 | 1540%
29 | CCCNc1nc2ncn(-c3c(C)cccc3Cl)c(=O)c2s1 | inactive
30 | Cc1cccc(Cl)c1-n1cnc2nc(Nc3cc(Cl)ncn3)sc2c1=O | 200%
31 | O=c1c2sc(SCc3ccccc3)nc2ncn1-c1ccccc1F | 127%
32 | Cc1cccc(Cl)c1-n1cnc2nc(SCc3ccccc3F)sc2c1=O | 558%
33 | Cc1cc(C)cc(Nc2nc3ncn(-c4c(C)cccc4Cl)c(=O)c3s2)c1 | 1100%
34 | CCc1ccc(Nc2nc3ncn(-c4c(C)cccc4Cl)c(=O)c3s2)cc1 | 250%
35 | Cc1ccccc1Nc1nc2ncn(-c3c(C)cccc3Cl)c(=O)c2s1 | 300%
36 | Cc1cccc(Cl)c1-n1cnc2nc(SCCc3ccccc3)sc2c1=O | 112%
37 | Cc1cccc(Cl)c1Nc1ncnc2nc(SCc3ccccc3)sc12 | 33%
38 | Cc1nc(Cl)cc(Nc2nc3ncn(-c4c(C)cccc4Cl)c(=O)c3s2)n1 | 320%
39 | Cc1cccc(Cl)c1-n1cnc2nc(SCCCc3ccccc3)sc2c1=O | 174%
40 | Cc1cccc(Cl)c1-n1cnc2nc(NCc3ccccc3)sc2c1=O | inactive
41 | Cc1cccc(Cl)c1-n1cnc2nc(SCc3cccc(F)c3)sc2c1=O | 1140%
42 | Cc1ccc(N(C)c2nc3ncn(-c4c(C)cccc4Cl)c(=O)c3s2)cc1 | 107%
43 | Cc1ccc(-c2nc3ncn(-c4c(C)cccc4Cl)c(=O)c3s2)cc1 | 185%
44 | O=c1c2sc(SCc3ccccc3)nc2ncn1-c1ccc(Cl)cc1 | 104%
45 | Cc1cccc(Cl)c1-n1cnc2nc(Nc3ccccn3)sc2c1=O | inactive
46 | Cc1cccc(Cl)c1-n1cnc2nc(SCc3ccc(F)cc3)sc2c1=O | 788%
47 | Cc1cccc(Cl)c1-n1cnc2nc(Nc3ccc(Br)cc3)sc2c1=O | 150%
48 | Cc1cc(Cl)cc(Nc2nc3ncn(-c4c(C)cccc4Cl)c(=O)c3s2)c1 | 305%
49 | Cc1cccc(Cl)c1-n1cnc2nc(Nc3ccc(F)cc3)sc2c1=O | 250%
50 | Cc1ccc(Sc2nc3ncn(-c4c(C)cccc4Cl)c(=O)c3s2)cc1 | 226%

tested on: Mus musculus; experiment: Anti-schizophrenic activity in C57BL/6J mouse assessed as protection against MK-801-induced auditory gating deficit by measuring prepulse inhibition impairment at 1 mg/kg, ip at 8 to 16 dB prepulse intensity (reference value: 11%); assay type: functional; parameters: scale not given: the % may be the effect or the level left

Row | Compound | Activity [%]
51 | CN1CCN(C2=Nc3cc(Cl)ccc3Nc3ccccc32)CC1 [CLOZAPINE] | 32

target: T1, Neuronal acetylcholine receptor subunit alpha-7; experiment: Positive allosteric modulation of human alpha7 nAChR expressed in Xenopus laevis oocytes assessed as increase in acetylcholine-induced channel current at -90 mV holding potential preincubated for 2 mins followed by co-application with acetylcholine for 10 secs by two-electrode voltage clamp method; assay type: cell-based

Row | Compound | EC50 [µM]
52 | Cc1ccc(Nc2nc3ncn(-c4c(C)cccc4Cl)c(=O)c3s2)cc1 | 8.45
53 | Cc1cccc(Cl)c1-n1cnc2nc(SCc3ccc(Cl)cc3)sc2c1=O | 1.19
54 | Cc1ccc(Nc2nc3ncn(-c4c(C)cccc4Cl)c(=O)c3s2)cc1F | 5.65
55 | Cc1cccc(Cl)c1-n1cnc2nc(SCc3ccc(F)cc3F)sc2c1=O | 3.54
56 | Cc1ccc(C(=O)Nc2nc3ncn(-c4c(C)cccc4Cl)c(=O)c3s2)cc1 | 20.4
57 | Cc1cccc(Cl)c1-n1cnc2nc(SCc3ccccc3F)sc2c1=O | 2.05
58 | Cc1cccc(Cl)c1-n1cnc2nc(SCc3cccc(F)c3)sc2c1=O | 7.65
59 | Cc1cccc(Cl)c1-n1cnc2nc(SCc3ccc(F)cc3)sc2c1=O | 2.17

target: T1, Neuronal acetylcholine receptor subunit alpha-7; experiment: Agonist activity at human alpha7 nAChR expressed in Xenopus laevis oocytes assessed as induction of channel current at -90 mV holding potential by two-electrode voltage clamp method; assay type: cell-based

Row | Compound | Activity
60 | Cc1cccc(Cl)c1-n1cnc2nc(SCc3ccc(Br)cc3)sc2c1=O | inactive
61 | Cc1cccc(Cl)c1-n1cnc2nc(Nc3ccncn3)sc2c1=O | inactive
62 | Cc1ccc(CSc2nc3ncn(-c4c(C)cccc4Cl)c(=O)c3s2)cc1 | inactive
63 | Cc1ccccc1-n1cnc2nc(SCc3ccccc3)sc2c1=O | inactive
64 | Cc1ccc(Nc2nc3ncn(-c4c(C)cccc4Cl)c(=O)c3s2)cc1C | inactive
65 | Cc1cccc(Cl)c1-n1cnc2nc(Nc3ccc(F)c(F)c3)sc2c1=O | inactive
66 | Cc1cccc(Cl)c1-n1cnc2nc(Nc3ccc(Cl)cc3)sc2c1=O | inactive
67 | Cc1cc(Nc2nc3ncn(-c4c(C)cccc4Cl)c(=O)c3s2)cc(C)c1C | inactive
68 | COc1ccc(CSc2nc3ncn(-c4c(C)cccc4Cl)c(=O)c3s2)cc1 | inactive
69 | O=c1c2sc(SCc3ccccc3)nc2ncn1-c1ccccc1Cl | inactive
70 | Cc1ccc(Nc2nc3ncn(-c4c(C)cccc4Cl)c(=O)c3s2)cc1 | inactive
71 | Cc1cccc(Cl)c1-n1cnc2nc(Nc3cccc(F)c3)sc2c1=O | inactive
72 | Cc1cccc(Cl)c1-n1cnc2nc(SCc3ccc(Cl)cc3)sc2c1=O | inactive
73 | Cc1cccc(Cl)c1-n1cnc2nc(Nc3ccc(OC(F)(F)F)cc3)sc2c1=O | inactive
74 | Cc1ccc(Nc2nc3ncn(-c4c(C)cccc4Cl)c(=O)c3s2)cc1F | inactive
75 | O=c1c2sc(SCc3ccccc3)nc2ncn1-c1ccc(F)cc1 | inactive
76 | Cc1cccc(Cl)c1-n1cnc2nc(Nc3cccc(Cl)c3)sc2c1=O | inactive
77 | Cc1ccc(Nc2ccc3ncn(-c4c(C)cccc4Cl)c(=O)c3c2)cc1 | inactive
78 | Cc1cccc(Cl)c1-n1cnc2nc(Nc3ccc(Cl)nn3)sc2c1=O | inactive
79 | Cc1cccc(Cl)c1-n1cnc2nc(Nc3ccccc3)sc2c1=O | inactive
80 | Cc1ccc(CNc2nc3ncn(-c4c(C)cccc4Cl)c(=O)c3s2)cc1 | inactive
81 | Cc1cccc(Cl)c1-n1cnc2nc(SCc3ccc(F)cc3F)sc2c1=O | inactive
82 | Cc1ccc(C(=O)Nc2nc3ncn(-c4c(C)cccc4Cl)c(=O)c3s2)cc1 | inactive
83 | COc1ccc(Nc2nc3ncn(-c4c(C)cccc4Cl)c(=O)c3s2)cc1 | inactive
84 | O=c1c2sc(SCc3ccccc3)nc2ncn1-c1cccc(F)c1 | inactive

Row | Compound | Activity
85 | Cc1ccc(S(=O)(=O)Nc2nc3ncn(-c4c(C)cccc4Cl)c(=O)c3s2)cc1 | inactive
86 | Cc1cccc(Cl)c1-n1cnc2nc(Nc3ccccc3F)sc2c1=O | inactive
87 | Cc1cccc(Nc2nc3ncn(-c4c(C)cccc4Cl)c(=O)c3s2)c1 | inactive
88 | CCCNc1nc2ncn(-c3c(C)cccc3Cl)c(=O)c2s1 | inactive
89 | Cc1cccc(Cl)c1-n1cnc2nc(Nc3cc(Cl)ncn3)sc2c1=O | inactive
90 | O=c1c2sc(SCc3ccccc3)nc2ncn1-c1ccccc1F | inactive
91 | Cc1cccc(Cl)c1-n1cnc2nc(SCc3ccccc3F)sc2c1=O | inactive
92 | Cc1cc(C)cc(Nc2nc3ncn(-c4c(C)cccc4Cl)c(=O)c3s2)c1 | inactive
93 | CCc1ccc(Nc2nc3ncn(-c4c(C)cccc4Cl)c(=O)c3s2)cc1 | inactive
94 | Cc1ccccc1Nc1nc2ncn(-c3c(C)cccc3Cl)c(=O)c2s1 | inactive
95 | Cc1cccc(Cl)c1-n1cnc2nc(SCCc3ccccc3)sc2c1=O | inactive
96 | Cc1cccc(Cl)c1Nc1ncnc2nc(SCc3ccccc3)sc12 | inactive
97 | Cc1nc(Cl)cc(Nc2nc3ncn(-c4c(C)cccc4Cl)c(=O)c3s2)n1 | inactive
98 | Cc1cccc(Cl)c1-n1cnc2nc(SCCCc3ccccc3)sc2c1=O | inactive
99 | Cc1cccc(Cl)c1-n1cnc2nc(NCc3ccccc3)sc2c1=O | inactive
100 | Cc1cccc(Cl)c1-n1cnc2nc(SCc3cccc(F)c3)sc2c1=O | inactive
101 | Cc1ccc(N(C)c2nc3ncn(-c4c(C)cccc4Cl)c(=O)c3s2)cc1 | inactive
102 | Cc1ccc(-c2nc3ncn(-c4c(C)cccc4Cl)c(=O)c3s2)cc1 | inactive
103 | O=c1c2sc(SCc3ccccc3)nc2ncn1-c1ccc(Cl)cc1 | inactive
104 | Cc1cccc(Cl)c1-n1cnc2nc(Nc3ccccn3)sc2c1=O | inactive
105 | Cc1cccc(Cl)c1-n1cnc2nc(SCc3ccc(F)cc3)sc2c1=O | inactive
106 | Cc1cccc(Cl)c1-n1cnc2nc(Nc3ccc(Br)cc3)sc2c1=O | inactive
107 | Cc1cc(Cl)cc(Nc2nc3ncn(-c4c(C)cccc4Cl)c(=O)c3s2)c1 | inactive
108 | Cc1cccc(Cl)c1-n1cnc2nc(Nc3ccc(F)cc3)sc2c1=O | inactive
109 | Cc1ccc(Sc2nc3ncn(-c4c(C)cccc4Cl)c(=O)c3s2)cc1 | inactive
